Data from patent US7544814B2, “[3.2.0] Heterocyclic compounds and methods of using the same” (Nereus Pharmaceuticals, Inc., priority 2004, dated 2009).
pEC50: −log10 of the molar value. Several values for one entry are separate records, joined by “and”; a condition that tells them apart may be missing. Identical values can stand only once. Like-named read-outs stand apart in the source and are kept apart here.

Assays:
[1] = tested on: PC-3; assay: Cell growth inhibition (resazurin), PC-3; type: cell-based, human; settings: for cytotoxicity against PC-3, in words: from EC50 values
[2] = tested on: NF-κB; assay: NF-κB-mediated luciferase reporter gene assay, HEK293 NF-κB/Luc cells, TNF-α stimulation; type: cell-based, human; settings: for effect on luciferase activity upon TNF-α stimulation, in words: pretreatment of NF-κB/Luc 293 cells; for EC50: read-out: EC50, NF-κB-mediated luciferase reporter gene assay, Table 5, values in nM, 1 hr pretreatment, TNF-α 6 hr
Procedure, shortened: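 Cells seeded at 1.5×10^4/well in phenol-red free DMEM, pretreated 1 h with 8-point half-log compound dilutions (DMSO stocks), then stimulated with TNF-α (10 μl of 50 ng/ml solution) for 6 h. Luciferase read as RLU after 10 min with Steady Lite reagent at room temperature.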

[3] = tested on: LeTx-mediated cytotoxicity of RAW 264.7 cells; settings: read-out: EC50 for inhibition of RAW 264.7 cell cytotoxicity mediated by anthrax lethal toxin; 45 minute preincubation, 1 μg/ml LF and PA, six hours; maximum concentration 330 nM
[4] = biological target: T1, trypsin-like activity of purified rabbit muscle 20S proteasome (Oryctolagus cuniculus, UniProt G1SWK8); assay: biochemical
T1 sequence (G1SWK8 1-271): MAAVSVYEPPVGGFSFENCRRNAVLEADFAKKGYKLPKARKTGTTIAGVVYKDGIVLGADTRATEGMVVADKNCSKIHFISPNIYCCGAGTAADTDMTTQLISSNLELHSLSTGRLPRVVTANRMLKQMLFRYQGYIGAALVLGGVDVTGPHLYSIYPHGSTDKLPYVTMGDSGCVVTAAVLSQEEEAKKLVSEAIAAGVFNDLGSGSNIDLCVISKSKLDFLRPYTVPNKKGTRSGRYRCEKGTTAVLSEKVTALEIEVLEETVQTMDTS

[5] = tested on: U266; assay: Cell growth inhibition (resazurin), U266; settings: for cytotoxicity against U266, in words: from EC50 values; for pEC50: 48 hours drug exposure
[6] = tested on: HT-29; assay: Cell growth inhibition (resazurin), HT-29; settings: for cytotoxicity against HT-29, in words: from EC50 values
[7] = tested on: OVCAR-3; assay: Cell growth inhibition (resazurin), OVCAR-3; settings: for cytotoxicity against OVCAR-3, in words: from EC50 values
[8] = tested on: B16-F10; assay: Cell growth inhibition (resazurin), B16-F10; settings: for cytotoxicity against B16-F10, in words: from EC50 values
[9] = tested on: NCI-H292; assay: Cell growth inhibition (resazurin), NCI-H292; settings: for cytotoxicity against NCI-H292, in words: from EC50 values
[10] = tested on: RPMI 8226; assay: Cell growth inhibition (resazurin), RPMI 8226; settings: for cytotoxicity against RPMI 8226, in words: from EC50 values; for pEC50: 48 hours drug exposure
[11] = tested on: MDA-MB-231; assay: Cell growth inhibition (resazurin), MDA-MB-231; settings: for cytotoxicity against MDA-MB-231, in words: from EC50 values
[12] = biological target: T2, caspase-like activity of purified rabbit muscle 20S proteasome (Oryctolagus cuniculus, UniProt A0A5F9DQW2); assay: In vitro inhibition of 20S proteasome caspase-like activity (Z-LLE-AMC)
T2 sequence (A0A5F9DQW2 1-212): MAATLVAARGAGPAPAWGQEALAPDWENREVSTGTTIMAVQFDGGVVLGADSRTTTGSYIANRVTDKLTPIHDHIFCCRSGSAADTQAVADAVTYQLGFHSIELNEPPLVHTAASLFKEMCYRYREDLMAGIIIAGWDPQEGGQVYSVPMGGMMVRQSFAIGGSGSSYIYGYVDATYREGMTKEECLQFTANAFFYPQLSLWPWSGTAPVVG

[13] = biological target: T1, trypsin-like activity of purified rabbit muscle 20S proteasome; assay: In vitro inhibition of 20S proteasome trypsin-like activity (Boc-LRR-AMC); settings: under the conditions tested
[14] = biological target: T3, chymotrypsin-like activity of purified rabbit muscle 20S proteasome (Oryctolagus cuniculus, UniProt G1T4Q9); assay: In vitro inhibition of 20S proteasome chymotrypsin-like activity (suc-LLVY-AMC); settings: EC50 Chymotrypsin-like, Table 6, values in nM
T3 sequence (G1T4Q9 1-263): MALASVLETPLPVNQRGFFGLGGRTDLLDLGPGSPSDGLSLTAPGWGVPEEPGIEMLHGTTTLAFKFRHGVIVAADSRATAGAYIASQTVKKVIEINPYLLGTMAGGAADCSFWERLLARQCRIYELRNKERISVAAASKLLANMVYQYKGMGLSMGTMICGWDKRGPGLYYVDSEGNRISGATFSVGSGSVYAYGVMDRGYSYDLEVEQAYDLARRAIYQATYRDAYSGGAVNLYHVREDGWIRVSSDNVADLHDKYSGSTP

[15] = Stability in solution; type: physicochemical; settings: converted to VI-1B; mixture of II-48 and VI-1B in the ratio of 7:3
Experimental: The reaction mixture was stirred at room temperature for about 3 hours. The solvent was evaporated from the reaction mixture to yield the compound of Formula II-48, which was purified by reversed phase HPLC using Ace 5u C18 column (150 mm×22 mm ID) with a solvent gradient of 10% to 70% H2O/Acetonitrile over 15 min, 70 to 100% Acetonitrile over 5 min, holding at 100% Acetonitrile for 4 min, at a flow rate of 14.5 ml/min. Diode array detector was used to monitor the purification process. Compound II-48 (10 mg) eluted as a pure compound at 8.255 min. […] Compound VI-1B: UV (Acetonitrile/H2O) λmax 235 (sh) nm; ESMS, m/z 585.2 (M+H)^−.

[16] = read-out: EC50 against U266, Table 1
[17] = read-out: EC50 against RPMI 8226, Table 1
[18] = read-out: RPMI 8226 EC50, Table 2, mean ± SD where n≥3

Compound	cytotoxicity against PC-3, in words [1]	effect on luciferase activity upon TNF-α stimulation, in words [2]	EC50 [2]	pEC50 [3]	cytotoxicity against U266, in words [5]	pEC50 [5, 16]	pEC50 ([5]; read-out: U266 EC50, Table 2)	cytotoxicity against HT-29, in words [6]	cytotoxicity against OVCAR-3, in words [7]	cytotoxicity against B16-F10, in words [8]	cytotoxicity against NCI-H292, in words [9]	cytotoxicity against RPMI 8226, in words [10]	pEC50 [10, 17]	pEC50 [10, 18]	cytotoxicity against MDA-MB-231, in words [11]	inhibition of the trypsin-like activity of the 20S proteasome, in words [13]	EC50 [14]	further results
C[C@@]12OC(=O)[C@]1([C@@H](O)[C@H]1CCCC3OC31)NC(=O)[C@@H]2CCCl (single isomer, unassigned) [Formula II-5A]	cytotoxic	dose-dependent decrease	33 nM	8.52	cytotoxic	8.05	8.00 and 8.05	cytotoxic	cytotoxic	cytotoxic	cytotoxic	cytotoxic	7.54	7.44 and 7.54	cytotoxic	able to inhibit	6 nM and 7 nM	pEC50 [4]: 7.05; pEC50 ([7]; read-out: EC50 against OVCAR-3, Table 1, 48 hours drug exposure): 7.19; EC50 ([12]; EC50 Caspase-like, Table 6, values in nM): 535 nM and 438 nM; pEC50 ([12]; EC50 values, caspase-like activity, summary of Table 6): 6.07 to 6.67
C[C@@]12OC(=O)[C@]1([C@@H](O)[C@H]1CCCC3OC31)NC(=O)[C@@H]2CCCl (single isomer, unassigned) [Formula II-5B]	cytotoxic	dose-dependent decrease	279 nM	7.35	cytotoxic	6.95	6.93 and 6.95	cytotoxic	cytotoxic	cytotoxic	cytotoxic	cytotoxic	6.48	6.49 and 6.48	cytotoxic	able to inhibit	85 nM	pEC50 ([1]; Table 1, 48 hours drug exposure, mean ± SD where n≥3, read-out: EC50 against PC-3): 5.88; pEC50 ([6]; read-out: EC50 against HT-29, Table 1, 48 hours drug exposure, mean ± SD where n≥3): 5.92; pEC50 ([8]; read-out: EC50 against B16-F10, Table 1, 48 hours drug exposure, mean ± SD where n≥3): 5.94; pEC50 ([9]; read-out: EC50 against NCI-H292, Table 1, 48 hours drug exposure, mean ± SD where n≥3): 5.90; pEC50 ([11]; read-out: EC50 against MDA-MB-231, Table 1, 48 hours drug exposure, mean ± SD where n≥3): 6.02; EC50 ([12]; EC50 Caspase-like, Table 6, values in μM): 3800 nM and 2900 nM; EC50 ([12]; EC50 values, caspase-like activity, range in mixed units, summary of Table 6, range from nM to μM): 956 to 8700 nM
C[C@]1(O)[C@@H](CCCl)C(=O)N[C@]1(C(=O)SCC(NC(=O)CCC(N)C(=O)O)C(=O)NCC(=O)O)[C@@H](O)[C@@H]1C=CCCC1 (stereo partly shown) [Formula II-48]	–	–	–	–	–	–	–	–	–	–	–	–	–	–	–	–	–	stability in solution [15]: unstable in solution
